Measurements reported in patent US12642270B2, “Substituted thiophene carboxamides, thiophene carboxylic acids and derivatives thereof” (Bayer Aktiengesellschaft, priority 2019, dated 2026).

Assay: Log P by HPLC on reversed phase columns (EEC directive 79/831 Annex V.A8)
Type: physicochemical
Conditions: LogP method [a]; compounds of formula (I), Table 1.1
Summary of the method: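 Values come from retention times calibrated against alkan-2-ones (3–16 carbons) by linear interpolation, using reversed-phase LC-UV per EEC directive 79/831 Annex V.A8. Acetonitrile gradient 10–95% with 0.1% formic acid [a], 0.001 M ammonium acetate [b] or 0.1% phosphoric acid [c]; several values within one method separated by "+".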

SMILES	LogP
CCOC(=O)C(NC(=O)c1sc(Br)c(C(F)F)c1Br)C(C)C (stereo not drawn) [1.0502]	4.21^[a]
CCOC(=O)C(Cc1ccccc1)NC(=O)c1sc(Br)c(C(F)F)c1Br (stereo not drawn) [1.0504]	4.40^[a]
COC(=O)C1(NC(=O)c2sc(Br)c(C(F)F)c2Br)CCC1 [1.0505]	3.25^[a]
CCOC(=O)C1(NC(=O)c2sc(Br)c(C(F)F)c2Br)CCC1 [1.0506]	3.66^[a]
CCCOC(=O)C1(NC(=O)c2sc(Br)c(C(F)F)c2Br)CC1 [1.0507]	3.42^[a]
N#CCNC(=O)c1sc(Br)c(C(F)F)c1Br [1.0509]	2.37^[a]
CCOC(=O)CNC(=O)c1sc(C(F)F)c(Br)c1Br [1.0510]	3.02^[a]
COC(=O)C1(NC(=O)c2sc(C(F)F)c(Br)c2Br)CC1 [1.0512]	2.79^[a]
COC(=O)C(C)(C)NC(=O)c1sc(C(F)F)c(Br)c1Br [1.0513]	3.32^[a]
CCOC(=O)C(NC(=O)c1sc(C(F)F)c(Br)c1Br)C(C)C (stereo not drawn) [1.0514]	4.30^[a]
CCOC(=O)C(Cc1ccccc1)NC(=O)c1sc(C(F)F)c(Br)c1Br (stereo not drawn) [1.0516]	4.48^[a]
COC(=O)C1(NC(=O)c2sc(C(F)F)c(Br)c2Br)CCC1 [1.0517]	3.35^[a]
CCOC(=O)C1(NC(=O)c2sc(C(F)F)c(Br)c2Br)CCC1 [1.0518]	3.75^[a]
CCCOC(=O)C1(NC(=O)c2sc(C(F)F)c(Br)c2Br)CC1 [1.0519]	3.51^[a]
N#CCNC(=O)c1sc(C(F)F)c(Br)c1Br [1.0521]	2.45^[a]
CCOC(=O)C1(NC(=O)c2sc(C(F)F)c(Br)c2Br)CC1 [1.0522]	3.14^[a]
CC(C)(NC(=O)c1sc(Br)c(Br)c1F)C(=O)O [1.0523]	2.54^[a]

Second part, the molecule after the results:

LogP	SMILES
3.40^[a]	COC(=O)CC[C@H](NC(=O)c1sc(Br)c(Br)c1Cl)C(=O)OC [1.0498]
4.12^[a]	COC(=O)CNC(=S)c1sc(Cl)c(Cl)c1I [1.0499]
3.10^[a]	O=C(O)CNC(=S)c1sc(Cl)c(Br)c1Cl [1.0500]
3.37^[a]	COC(=O)C(NC(=O)c1sc(Br)c(C(F)F)c1Br)C1CC1 (stereo not drawn) [1.0503]
3.57^[a]	O=C(NC1(C(=O)OC2CCC2)CC1)c1sc(Br)c(C(F)F)c1Br [1.0508]
2.64^[a]	COC(=O)CNC(=O)c1sc(C(F)F)c(Br)c1Br [1.0511]
3.46^[a]	COC(=O)C(NC(=O)c1sc(C(F)F)c(Br)c1Br)C1CC1 (stereo not drawn) [1.0515]
3.67^[a]	O=C(NC1(C(=O)OC2CCC2)CC1)c1sc(C(F)F)c(Br)c1Br [1.0520]
4.35^[a]	CCOC(=O)C(NC(=O)c1sc(Cl)c(Cl)c1Br)C1CC1 (stereo not drawn) [1.0524]
3.67^[a]	COC(=O)C1(NC(=S)c2sc(Br)c(Cl)c2C)CC1 [1.0526]
2.52^[a]	COC(=O)CNC(=O)c1sc(Br)c(Br)c1F [1.0527]
4.55^[a]	COC(=O)C(CC(=O)OC(C)(C)C)NC(=O)c1sc(Br)c(Br)c1Cl (stereo not drawn) [1.0528]
3.58^[a]	COC(=O)[C@H](CSC(=O)N(C)C)NC(=O)c1sc(Cl)c(Cl)c1Br [1.0529]

Same assay, conditions: method [a]

SMILES	LogP
CCOC(=O)CC[C@H](NC(=O)c1sc(Br)c(Br)c1Cl)C(=O)OCC [1.0532]	4.23^[a]
CNC(=S)SC[C@H](NC(=O)c1sc(Br)c(Br)c1F)C(=O)OC [1.0534]	3.24^[a]
COC(=O)CNC(=S)c1sc(Br)c(Br)c1F [1.0538]	3.74^[a]
COC(=O)C(C)(C)NC(=O)c1sc(Br)c(Br)c1F [1.0540]	3.34^[a]
COC(=O)C1(NC(=O)c2sc(Br)c(Br)c2F)COC1 [1.0541]	2.49^[a]
COC(=O)C(CCSC(C)=O)NC(=O)c1sc(Br)c(Br)c1F (stereo not drawn) [1.0553]	3.13^[a]
CCOC(=O)C(CSC(C)=O)NC(=O)c1sc(Br)c(Br)c1F (stereo not drawn) [1.0554]	3.18^[a]
CCOC(=O)C(CSC)NC(=O)c1sc(Br)c(Br)c1F (stereo not drawn) [1.0556]	3.87^[a]
COC(=O)CC[C@H](NC(=O)c1sc(Br)c(Br)c1F)C(=O)OC [1.0557]	3.07^[a]
CCOC(=O)C[C@H](NC(=O)c1sc(Br)c(Br)c1F)C(=O)OCC [1.0558]	3.76^[a]
CCOC(=O)CC[C@H](NC(=O)c1sc(Br)c(Br)c1F)C(=O)OCC [1.0559]	3.84^[a]
COC(=O)[C@H](CC(=O)OC(C)(C)C)NC(=O)c1sc(Br)c(Br)c1F [1.0560]	4.12^[a]
N#CNC(=O)CNC(=O)c1sc(Br)c(Br)c1F [1.0563]	2.17^[a]

Next, values leading:

LogP	SMILES
3.39^[a]	CCNC(=O)SC[C@H](NC(=O)c1sc(Cl)c(Cl)c1Br)C(=O)OC [1.0530]
3.56^[a]	CNC(=S)SC[C@H](NC(=O)c1sc(Cl)c(Cl)c1Br)C(=O)OC [1.0531]
3.27^[a]	COC(=O)[C@H](CSC(=O)N(C)C)NC(=O)c1sc(Br)c(Br)c1F [1.0533]
3.59^[a]	COC(=O)C(CSC(=O)N(C)C)NC(=O)c1sc(Br)c(Br)c1Cl (stereo not drawn) [1.0535]
3.38^[a]	CCNC(=O)SCC(NC(=O)c1sc(Br)c(Br)c1Cl)C(=O)OC (stereo not drawn) [1.0536]
3.54^[a]	CNC(=S)SC[C@H](NC(=O)c1sc(Br)c(Br)c1Cl)C(=O)OC [1.0537]
2.09^[a]	COC(=O)C1(NC(=O)c2sc(Br)c(Br)c2F)CC1 [1.0539]
2.54^[a]	CCOC(=O)CN(O)C(=O)c1sc(Br)c(Br)c1F [1.0542]
3.10^[a]	CCNC(=O)SC[C@H](NC(=O)c1sc(Br)c(Br)c1F)C(=O)OC [1.0543]
3.05^[a]	COC(=O)C(C1CC1)N(O)C(=O)c1sc(Cl)c(Cl)c1Br (stereo not drawn) [1.0544]
4.15^[a]	CCOC(=O)C[C@H](NC(=O)c1sc(Br)c(Br)c1Cl)C(=O)OCC [1.0545]
3.33^[a]	COC(=O)C[C@H](NC(=O)c1sc(Br)c(Br)c1Cl)C(=O)OC [1.0546]
3.46^[a]	CCOC(=O)C(CSC(C)=O)NC(=O)c1sc(Cl)c(Cl)c1Br (stereo not drawn) [1.0547]
3.33^[a]	COC(=O)C[C@H](NC(=O)c1sc(Cl)c(Cl)c1Br)C(=O)OC [1.0548]
3.41^[a]	COC(=O)CC[C@H](NC(=O)c1sc(Cl)c(Cl)c1Br)C(=O)OC [1.0549]
4.32^[a]	CCOC(=O)C(CSC)NC(=O)c1sc(Br)c(Br)c1Cl (stereo not drawn) [1.0550]
4.17^[a]	CCOC(=O)C[C@H](NC(=O)c1sc(Cl)c(Cl)c1Br)C(=O)OCC [1.0551]
4.59^[a]	COC(=O)[C@H](CC(=O)OC(C)(C)C)NC(=O)c1sc(Cl)c(Cl)c1Br [1.0552]
2.99^[a]	COC(=O)C[C@H](NC(=O)c1sc(Br)c(Br)c1F)C(=O)OC [1.0555]
3.44^[a]	CCOC(=O)C(CSC(C)=O)NC(=O)c1sc(Br)c(Br)c1Cl (stereo not drawn) [1.0561]
4.25^[a]	CCOC(=O)CC[C@H](NC(=O)c1sc(Cl)c(Cl)c1Br)C(=O)OCC [1.0562]
2.45^[a]	COC(=O)CNC(=O)c1sc(C)c(Cl)c1Cl [1.0564]
2.98^[a]	COC(=O)C1(NC(=O)c2sc(C#N)c(Br)c2Cl)CCC1 [1.0565]
3.38^[a]	CCOC(=O)C1(NC(=O)c2sc(C#N)c(Br)c2Cl)CCC1 [1.0566]
3.18^[a]	CCCOC(=O)C1(NC(=O)c2sc(C#N)c(Br)c2Cl)CC1 [1.0567]
3.32^[a]	N#Cc1sc(C(=O)NC2(C(=O)OC3CCC3)CC2)c(Cl)c1Br [1.0568]
